Read-outs that look alike come from different tables or passages of the source.
How the values were obtained:
[1] = tested on: Colo205; parameters: method as in PMID 32500882; conditions: 72 h exposure; cited from earlier work
[2] = parameters: method as in earlier work; conditions: pH 7.40, cited from earlier work
[3] = molecular target: T1, HSA site I (Trp-214) (Homo sapiens, UniProt P02768); parameters: method as in PMID 32500882; conditions: cited from earlier work
T1 construct: purchased Sigma-Aldrich (Darmstadt, Germany) A8763
T1 sequence (P02768 25-609): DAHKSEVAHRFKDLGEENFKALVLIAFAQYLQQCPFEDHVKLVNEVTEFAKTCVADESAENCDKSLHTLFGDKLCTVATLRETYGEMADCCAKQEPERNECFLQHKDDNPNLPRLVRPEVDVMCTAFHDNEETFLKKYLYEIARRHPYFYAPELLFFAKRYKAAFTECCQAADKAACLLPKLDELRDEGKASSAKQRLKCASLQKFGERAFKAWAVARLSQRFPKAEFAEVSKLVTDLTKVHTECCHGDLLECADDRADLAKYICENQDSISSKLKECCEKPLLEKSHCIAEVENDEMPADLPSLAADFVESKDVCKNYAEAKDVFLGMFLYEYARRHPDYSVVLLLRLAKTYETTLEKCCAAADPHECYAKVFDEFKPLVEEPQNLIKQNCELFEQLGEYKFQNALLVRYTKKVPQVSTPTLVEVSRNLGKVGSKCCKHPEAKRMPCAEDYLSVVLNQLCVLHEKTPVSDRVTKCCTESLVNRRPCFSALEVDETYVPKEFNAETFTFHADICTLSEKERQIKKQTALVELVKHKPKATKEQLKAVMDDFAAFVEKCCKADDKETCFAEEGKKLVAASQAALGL

[4] = tested on: Colo320; parameters: method as in PMID 32500882; conditions: cited from earlier work
[5] = molecular target: T2, HSA site II (Homo sapiens, UniProt P02768); parameters: method as in PMID 32500882; conditions: cited from earlier work
T2 construct: purchased Sigma-Aldrich (Darmstadt, Germany) A8763
T2 sequence (P02768 25-609): as above

[6] = molecular target: T3, OATP2B1 (Homo sapiens, UniProt O94956); experiment: OATP uptake assay, OATP2B1; format: cell-based; conditions: reference inhibitor; experiments not documented
T3 construct: expressed in transfected cells; host or cells: A431 epidermoid carcinoma cells
T3 sequence (O94956 1-709): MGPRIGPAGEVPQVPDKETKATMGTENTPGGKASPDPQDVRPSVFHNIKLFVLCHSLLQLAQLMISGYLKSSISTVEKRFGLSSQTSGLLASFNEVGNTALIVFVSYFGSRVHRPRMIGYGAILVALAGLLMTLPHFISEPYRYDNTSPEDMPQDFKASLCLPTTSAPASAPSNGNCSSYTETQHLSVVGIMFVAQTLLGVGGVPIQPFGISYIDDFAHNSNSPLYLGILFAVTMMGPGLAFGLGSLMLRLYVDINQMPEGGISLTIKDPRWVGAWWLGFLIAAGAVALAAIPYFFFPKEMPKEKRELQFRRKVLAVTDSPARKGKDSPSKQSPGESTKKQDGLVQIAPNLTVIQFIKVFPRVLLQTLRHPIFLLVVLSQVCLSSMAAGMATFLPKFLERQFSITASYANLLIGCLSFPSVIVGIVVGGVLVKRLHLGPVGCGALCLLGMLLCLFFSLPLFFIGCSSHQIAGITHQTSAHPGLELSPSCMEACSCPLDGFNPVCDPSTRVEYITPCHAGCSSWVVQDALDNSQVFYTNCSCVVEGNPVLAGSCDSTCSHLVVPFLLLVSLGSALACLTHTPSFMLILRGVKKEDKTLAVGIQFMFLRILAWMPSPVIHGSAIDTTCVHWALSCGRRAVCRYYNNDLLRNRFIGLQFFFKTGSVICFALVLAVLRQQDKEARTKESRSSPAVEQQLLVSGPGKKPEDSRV
Method: (§1) Cell lines: A431 cells overexpressing OATP1B1 or OATP2B1, and their mock transfected controls were generated and characterized previously. The cell lines were cultured in DMEM (Gibco, Thermofisher Scientific, Waltham, MA, USA), supplemented with 10% fetal bovine serum, 2 mM L-glutamine, 100 μg/mL streptomycin, and 100 units/mL penicillin at 37 °C and 5% CO2.
(§2) OATP uptake assay: Prior to the experiment, A431 cells (8 × 10^4/well) were seeded on 96-well plates in 200 μL cell culture medium. After 16–24 h, the cells were washed with 200 μL PBS, three times and pre-incubated with 20–200 μM HQNO2-L-Pro, or buffer without HQNO2-L-Pro for 5 min at 37 °C in 50 μL HBSS (Hank’s Balanced Salt Solution, pH 7.4; OATP1B1) or uptake buffer (pH 5.5; OATP2B1 [63]). The reaction was started by the addition of disulfopyrene (6,8-dihydroxy-1,3-pyrenedisulfonic acid disodium salt, Sigma, Darmstadt, Germany) at a final concentration of 10 μM (OATP1B1) or pyranine (8-hydroxypyrene-1,3-pyrenetrisulfonic acid trisodium salt, Sigma, Darmstadt, Germany) at a final concentration of 20 μM (OATP2B1), and the cells were further incubated at 37 °C for 10 min (OATP1B1) or 15 min (OATP2B1). The reaction was stopped by removing the supernatant after which the cells were washed three times with ice-cold PBS. Fluorescence (in 200 μL PBS) was determined using an Enspire plate reader (PerkinElmer, Waltham, MA, USA) with excitation/emission wavelengths of 460/510 nm. OATP-dependent transport was calculated by subtracting fluorescence measured in mock transfected cells. Transport activity was calculated based on the fluorescence signal in the absence (100%) of HQNO2-L-Pro. Experiments were repeated in at least three biological replicates.

[7] = molecular target: T4, OATP1B1 (Homo sapiens, UniProt Q9Y6L6); experiment: OATP uptake assay, OATP1B1; format: cell-based; conditions: reference inhibitor; experiments not documented
T4 construct: expressed in transfected cells; host or cells: A431 epidermoid carcinoma cells
T4 sequence (Q9Y6L6 1-691): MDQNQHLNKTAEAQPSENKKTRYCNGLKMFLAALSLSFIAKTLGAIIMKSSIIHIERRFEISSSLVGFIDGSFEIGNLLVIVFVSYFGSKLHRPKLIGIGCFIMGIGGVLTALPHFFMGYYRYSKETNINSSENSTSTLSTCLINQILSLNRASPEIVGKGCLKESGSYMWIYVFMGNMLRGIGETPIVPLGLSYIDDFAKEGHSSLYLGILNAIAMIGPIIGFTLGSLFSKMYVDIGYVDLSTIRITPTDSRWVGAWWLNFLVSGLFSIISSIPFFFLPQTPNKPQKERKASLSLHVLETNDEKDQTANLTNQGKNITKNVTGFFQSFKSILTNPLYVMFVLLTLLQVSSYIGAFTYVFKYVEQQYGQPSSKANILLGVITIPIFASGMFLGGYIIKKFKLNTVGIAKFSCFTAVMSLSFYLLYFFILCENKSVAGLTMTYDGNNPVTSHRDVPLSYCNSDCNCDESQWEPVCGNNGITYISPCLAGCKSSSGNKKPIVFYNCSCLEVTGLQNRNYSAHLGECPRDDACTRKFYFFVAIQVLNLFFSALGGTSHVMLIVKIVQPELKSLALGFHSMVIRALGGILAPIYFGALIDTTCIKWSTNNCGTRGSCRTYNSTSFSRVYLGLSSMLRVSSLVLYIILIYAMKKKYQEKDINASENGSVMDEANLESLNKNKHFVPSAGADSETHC
Method: as §1, §2

[8] = tested on: Colo320; experiment: In vitro cytotoxicity, Colo320 cells (MTT); format: cell-based, human; conditions: Homo sapiens, COLO 320; 72 h exposure
From the text: (§3) Cell lines: all cell culture reagents were obtained from Sigma-Aldrich; plasticware was purchased from Sarstedt (Nümbrecht, Germany); Human colon Colo205 (chemo-sensitive, ATCC-CCL-222) and Colo320 (Pgp/MDR1-expressing, doxorubicin-resistant, ATCC-CCL-220.1) adenocarcinoma cell lines were purchased from LGC Promochem, Teddington, UK; MES-SA and MES-SA/Dx5 uterine sarcoma cell lines were obtained from ATCC, where they were characterized by DNA fingerprinting. The expression of the Pgp efflux pump of MES-SA/Dx5 was proven by Western blot analysis in our former report, and was also reported for the Colo320 cells. The MES-SA and MES-SA/Dx5 cells used in this study were previously engineered to express the fluorescent proteins mCherry and eGFP, respectively, by lentiviral transduction.
(§4) The colon adenocarcinoma cells were cultured in RPMI 1640 medium supplemented with 10% heat-inactivated fetal bovine serum, 2 mM L-glutamine, 1 mM sodium pyruvate, and 100 mM HEPES. The cells were incubated at 37 °C, in a 5% CO2, 95% air atmosphere.
(§5) Cytotoxicity assays: The tested compounds were dissolved in PBS buffer to prepare 5 mM stock solutions, which were diluted in complete culture medium.
(§6) In the case of the Colo205 and Colo320 cells, two-fold serial dilutions were prepared in 100 μL medium. The semi-adherent colon adenocarcinoma cells were treated with Trypsin-Versene (EDTA) solution. They were adjusted to a density of 1 × 10^4 cells in 100 μL of RPMI 1640 medium and were added to each well, with the exception of the medium control wells. The final volume of the wells containing compounds and cells was 200 μL. The plates containing Colo205 and Colo320 cells were incubated at 37 °C for 72 h; at the end of the incubation period, 20 μL of 3-(4,5-dimethyl-2-thiazolyl)-2,5-diphenyl-2H-tetrazolium bromide (MTT) solution (from a stock solution of 5 mg/mL) was added to each well. After incubation at 37 °C for 4 h, 100 μL of sodium dodecyl sulfate (SDS) solution (10% in 0.01 M HCI) was added to each well, and the plates were further incubated at 37 °C overnight. Cell growth was determined by measuring the optical density (OD) at 540/630 nm with a Multiskan EX plate reader (Thermo Labsystems, Cheshire, WA, USA).
(§7) Inhibition of the cell growth (expressed as IC50: inhibitory concentration that reduces by 50% the growth of the cells exposed to the tested compounds) was determined from the sigmoid curve where 100 − ((ODsample − ODmedium control)/(ODcell control − ODmedium control)) × 100 values were plotted against the logarithm of compound concentrations. Curves for the data obtained on Colo205 and Colo320 cells were fitted by GraphPad Prism software (2021, Graphpad Software, version 7.00, San Diego, CA, USA) using the sigmoidal dose–response model (comparing variable and fixed slopes). From the MES-SA cell data, the IC50 values were calculated by our custom program, written by J. Sessler in C#. The p values were calculated by Student’s t-test. The IC50 values were always obtained from at least three independent experiments.

[9] = tested on: Colo205; experiment: In vitro cytotoxicity, Colo205 cells (MTT); format: cell-based, human; conditions: Homo sapiens, COLO 205; 72 h exposure
From the text: as §3, §4, §5, §6
as §7, with “From the MES-SA cell data, the IC50 values were calculated by our custom program, written by J. Sessler in C#. The p values were calculated by Student’s t-test. The IC50 values were always obtained from at least three independent experiments.” left out

[10] = tested on: MES-SA/Dx5; experiment: In vitro cytotoxicity, MES-SA/Dx5 cells (fluorescent protein readout); format: cell-based, human; conditions: Homo sapiens, MES-SA/Dx5; 144 h exposure
From the text: as §3
(§8) MES-SA cell lines were maintained in DMEM, supplemented with 10% fetal bovine serum, 5 mmol/L glutamine, and 50 units/mL penicillin and streptomycin. Cells were tested and resulted negative for mycoplasma contamination with the MycoAlert mycoplasma detection Kit (Lonza Group, Basel, Switzerland). One week prior to the cytotoxicity assays, Dx5 eGFP cells were selected in 500 nM doxorubicin for one passage to ensure the overexpression of P-glycoprotein.
as §5
(§9) In the case of the MES-SA and MES-SA/Dx5 cells, cell suspensions of the fluorescent cell lines were pre-mixed in a 1:1 ratio and seeded in 20 µL medium in a density of 2500 cells/well (1250 cells/well each) in a 384-well plate. After an overnight incubation, a serial dilution of the compounds was added to the plate in a final volume of 60 µL. The P-gp inhibitor tariquidar was added to the cells 15 min prior to the test compounds. After 144 h of incubation, plates were measured for the fluorescent intensity of mCherry (EX/EM: 585 nm/610 nm) and eGFP (EX/EM: 485 nm/510 nm). Cell seeding, aspiration of medium, and addition of drugs were performed by a Hamilton StarLet automated liquid handling robot.
as §7

[11] = tested on: MES-SA; experiment: In vitro cytotoxicity, MES-SA cells (fluorescent protein readout); format: cell-based, human; conditions: Homo sapiens, MES-SA; 144 h exposure
From the text: as §3, §8, §5, §9, §7

For `Cc1ccc(C(C)C)cc1.O=C(O)[C@@H]1CCC[NH+]1Cc1cc(Cl)c2ccc[n+]3c2c1[O][Ru-]3[Cl].[Cl-]` [RuCym-HQCl-L-Pro], the IC50 [1] is listed as 68 ± 11 µM, the “log D7.4” value ([2]; 24 mM chloride) is listed as “+0.09 ± 0.03” and the “log D7.4” value ([2]; 100 mM chloride) is listed as “+0.46 ± 0.03”. For the same compound, the “quenching constant logKQ'” value [3] was 5.7, the IC50 ([4]; 72 h exposure) was greater than 100 µM and the “Selectivity ratio IC50 (Colo205)/IC50 (Colo320)” value ([4]; calculated from IC50 values taken from ref 12) was no more than 0.68. The “DG marker displacement constant logKDG'” value [5] was 6.1.

In the case of `O=C1OC(c2ccc(O)c(S(=O)(=O)O)c2)(c2ccc(O)c(S(=O)(=O)O)c2)c2c(Br)c(Br)c(Br)c(Br)c21` [bromosulfophthalein, reference compound], the “effect on OATP2B1 transport” value [6] is reported as “inhibited the transport” and the “effect on OATP1B1 transport” value [7] is reported as “inhibited the transport”.

In the case of `COc1cccc2c1C(=O)c1c(O)c3c(c(O)c1C2=O)C[C@@](O)(C(=O)CO)C[C@@H]3O[C@H]1C[C@H](N)[C@H](O)[C@H](C)O1` [doxorubicin, reference compound], the IC50 [8] is reported as 5.4 ± 0.9 µM, the IC50 [9] is reported as 0.71 ± 0.02 µM and the IC50 [10] is reported as 4 ± 1 µM. The IC50 [11] was 0.03 ± 0.01 µM.
